Source: patent US10015966B2, “Fungicidal pyrazole mixtures” (E I DU PONT DE NEMOURS AND COMPANY, priority 2012, dated 2018)
Marks after values point to notes of the source that are not given here.

Columns and labels:
Botrytis cinerea = experiment: Test A: preventive spray on tomato seedlings, tomato Botrytis, visual disease rating; type: in vivo; conditions: 200 ppm test suspension
Experimental: General protocol for preparing test suspensions for Tests A-I: the test compounds were first dissolved in acetone in an amount equal to 3% of the final volume and then suspended at the desired concentration (in ppm) in acetone and purified water (50/50 mix by volume) containing 250 ppm of the surfactant Trem® 014 (polyhydric alcohol esters). The resulting test suspensions were then used in Tests A-I. Each test was conducted in triplicate, and the results were averaged. Spraying a 200 ppm test suspension to the point of run-off on the test plants was the equivalent of a rate of about 800 g/ha. Unless otherwise indicated, the rating values indicate a 200 ppm test suspension was used. (An asterisk “*” next to the rating value indicates a 40 ppm test suspension was used.) The test suspension was sprayed to the point of run-off on tomato seedlings. The following day the seedlings were inoculated with a spore suspension of Botrytis cinerea (the causal agent of tomato Botrytis) and incubated in saturated atmosphere at 20° C. for 48 h, and then moved to a growth chamber at 24° C. for 3 additional days, after which time visual disease ratings were made. Results for Tests A-I are given in Table A. In the Table, a rating of 100 indicates 100% disease control and a rating of 0 indicates no disease control (relative to the controls). A hyphen (-) indicates no test results.

[1] = tested on: Puccinia recondita f. sp. tritici; experiment: Test H: preventive spray on wheat seedlings, wheat leaf rust, visual disease rating; type: in vivo; conditions: 200 ppm test suspension
Experimental: General protocol for preparing test suspensions for Tests A-I: the test compounds were first dissolved in acetone in an amount equal to 3% of the final volume and then suspended at the desired concentration (in ppm) in acetone and purified water (50/50 mix by volume) containing 250 ppm of the surfactant Trem® 014 (polyhydric alcohol esters). The resulting test suspensions were then used in Tests A-I. Each test was conducted in triplicate, and the results were averaged. Spraying a 200 ppm test suspension to the point of run-off on the test plants was the equivalent of a rate of about 800 g/ha. Unless otherwise indicated, the rating values indicate a 200 ppm test suspension was used. (An asterisk “*” next to the rating value indicates a 40 ppm test suspension was used.) The test suspension was sprayed to the point of run-off on wheat seedlings. The following day the seedlings were inoculated with a spore suspension of Puccinia recondita f. sp. tritici (the causal agent of wheat leaf rust) and incubated in a saturated atmosphere at 20° C. for 24 h, and then moved to a growth chamber at 20° C. for 6 days, after which time visual disease ratings were made. Results for Tests A-I are given in Table A. In the Table, a rating of 100 indicates 100% disease control and a rating of 0 indicates no disease control (relative to the controls). A hyphen (-) indicates no test results.

[2] = tested on: Blumeria graminis f. sp. tritici; experiment: Test I: preventive spray on wheat seedlings, wheat powdery mildew, visual disease rating; type: in vivo; conditions: 192 h, 200 ppm test suspension
Experimental: General protocol for preparing test suspensions for Tests A-I: the test compounds were first dissolved in acetone in an amount equal to 3% of the final volume and then suspended at the desired concentration (in ppm) in acetone and purified water (50/50 mix by volume) containing 250 ppm of the surfactant Trem® 014 (polyhydric alcohol esters). The resulting test suspensions were then used in Tests A-I. Each test was conducted in triplicate, and the results were averaged. Spraying a 200 ppm test suspension to the point of run-off on the test plants was the equivalent of a rate of about 800 g/ha. Unless otherwise indicated, the rating values indicate a 200 ppm test suspension was used. (An asterisk “*” next to the rating value indicates a 40 ppm test suspension was used.) The test suspension was sprayed to the point of run-off on wheat seedlings. The following day the seedlings were inoculated with a spore dust of Blumeria graminis f. sp. tritici (also known as Erysiphe graminis f. sp. tritici, the causal agent of wheat powdery mildew) and incubated in a growth chamber at 20° C. for 8 days, after which time visual disease ratings were made. Results for Tests A-I are given in Table A. In the Table, a rating of 100 indicates 100% disease control and a rating of 0 indicates no disease control (relative to the controls). A hyphen (-) indicates no test results.

[3] = Single oral dose pharmacokinetics in rats, plasma and fat analysed by LC/MS (fat:plasma ratio); type: in vivo; conditions: single dose via oral gavage, compared to corresponding compounds with a nonhydrogen substituent at the para position of the phenyl ring connected to R^1 and R^2
Experimental: The pharmacokinetic properties of compounds of Formula 1 can be measured using a wide variety of assay protocols known in the science of pharmacology. In one illustrative method involving a single oral dose, three male and three female rats receive a single dose of a test substance via oral gavage. Approximately 0.25 mL of blood is collected via tail vein immediately prior to dosing, and then at 0.25, 0.5, 1, 2, 4, 8, 12, 24 h and every 24 h thereafter until sacrifice. At sacrifice, fat is also collected to determine the fat:plasma ratio at sacrifice. Blood is collected into tubes that contain ethylenediaminetetracetic acid (EDTA) and centrifuged at 2500×g in order to separate plasma from blood cells. The plasma is then extracted by protein precipitation using, for example, acetonitrile and a protein precipitation plate (e.g., Strata Impact Protein Precipitation Plate, part number CEO-7565 of Phenomenex, Torrance, Calif., U.S.A.) following directions provided for the plate. Alternatively, the plasma is extracted just with acetonitrile, vortexed (i.e. mixed using a vortex mixer), and centrifuged to pellet the proteins. After removal of the proteins, the plasma is analyzed for parent compound and/or metabolites by liquid chromatography-mass spectrometry (LC/MS). The fat is homogenized and extracted by an organic solvent such as acetonitrile. The extract is then analyzed for parent compound and/or metabolites by LC/MS. The plasma pharmacokinetic data is then analyzed using nonlinear modeling software (e.g., WinNonlin™ from Pharsight, Cary, N.C., U.S.A.) to determine half-life of the administered compound in plasma, the time after administration when the maximum plasma concentration is reached (Tmax), the maximum plasma concentration (Cmax) and the area under the plasma concentration curve (AUC). As analysis of fat requires rat sacrifice, fat data is obtained at single time points (i.e. the time of rat sacrifice). However, by using multiple rats sacrificed after different intervals from time of dosing, such parameters as Cmax for fat are determined.

Septoria tritici = experiment: Test F: preventive spray on wheat seedlings, wheat leaf blotch, visual disease rating; type: in vivo; conditions: Zymoseptoria tritici, 200 ppm test suspension
Experimental: General protocol for preparing test suspensions for Tests A-I: the test compounds were first dissolved in acetone in an amount equal to 3% of the final volume and then suspended at the desired concentration (in ppm) in acetone and purified water (50/50 mix by volume) containing 250 ppm of the surfactant Trem® 014 (polyhydric alcohol esters). The resulting test suspensions were then used in Tests A-I. Each test was conducted in triplicate, and the results were averaged. Spraying a 200 ppm test suspension to the point of run-off on the test plants was the equivalent of a rate of about 800 g/ha. Unless otherwise indicated, the rating values indicate a 200 ppm test suspension was used. (An asterisk “*” next to the rating value indicates a 40 ppm test suspension was used.) The test suspension was sprayed to the point of run-off on wheat seedlings. The following day the seedlings were inoculated with a spore suspension of Septoria tritici (the causal agent of wheat leaf blotch) and incubated in saturated atmosphere at 24° C. for 48 h. and then the seedlings were moved to a growth chamber at 20° C. for 19 additional days, after which time visual disease ratings were made. Results for Tests A-I are given in Table A. In the Table, a rating of 100 indicates 100% disease control and a rating of 0 indicates no disease control (relative to the controls). A hyphen (-) indicates no test results.

Septoria nodorum = experiment: Test E: preventive spray on wheat seedlings, Septoria glume blotch, visual disease rating; type: in vivo; conditions: asterisked rating: test suspension other than 200 ppm
Experimental: General protocol for preparing test suspensions for Tests A-I: the test compounds were first dissolved in acetone in an amount equal to 3% of the final volume and then suspended at the desired concentration (in ppm) in acetone and purified water (50/50 mix by volume) containing 250 ppm of the surfactant Trem® 014 (polyhydric alcohol esters). The resulting test suspensions were then used in Tests A-I. Each test was conducted in triplicate, and the results were averaged. Spraying a 200 ppm test suspension to the point of run-off on the test plants was the equivalent of a rate of about 800 g/ha. Unless otherwise indicated, the rating values indicate a 200 ppm test suspension was used. (An asterisk “*” next to the rating value indicates a 40 ppm test suspension was used.) The test suspension was sprayed to the point of run-off on wheat seedlings. The following day the seedlings were inoculated with a spore suspension of Septoria nodorum (the causal agent of Septoria glume blotch) and incubated in a saturated atmosphere at 24° C. for 48 h, and then moved to a growth chamber at 20° C. for 9 days, after which time visual disease ratings were made. Results for Tests A-I are given in Table A. In the Table, a rating of 100 indicates 100% disease control and a rating of 0 indicates no disease control (relative to the controls). A hyphen (-) indicates no test results.

Work on `Cc1nn(C)c(Nc2c(F)cccc2Br)c1-c1ccc(F)cc1Cl` [Compound 5, N-(2-bromo-6-fluorophenyl)-4-(2-chloro-4-fluorophenyl)-1,3-dimethyl-1H-pyrazol-5-amine] yielded a pest or weed control at 200 ppm (Botrytis cinerea) of 100%, a pest or weed control at 200 ppm [1] of 100% and a pest or weed control at 200 ppm [2] of 100%. The distribution into fat [3] was “significantly diminished distribution into fat” and the pest or weed control at 200 ppm (Septoria tritici) was 100%.
For `Cc1nn(C)c(Nc2c(F)cccc2Br)c1-c1ccc(F)cc1Br` [Compound 7, 4-(2-bromo-4-fluorophenyl)-N-(2-bromo-6-fluorophenyl)-1,3-dimethyl-1H-pyrazol-5-amine], the pest or weed control at 200 ppm (Botrytis cinerea) was 100%, the melting point was 154 to 156 °C and the pest or weed control at 200 ppm [1] was 100%. For the same compound, the pest or weed control at 200 ppm [2] was 100% and the pest or weed control at 200 ppm (Septoria tritici) was 100%.
With `Cc1nn(C)c(Nc2c(F)cccc2F)c1-c1ccc(F)cc1Br` [Compound 11, 4-(2-bromo-4-fluorophenyl)-N-(2,6-difluorophenyl)-1,3-dimethyl-1H-pyrazol-5-amine] the “Test E rating (% disease control)” value (Septoria nodorum) was 60* %.
For `Cc1nn(C)c(Nc2ccccc2Br)c1-c1ccc(F)cc1Cl` [Compound 9, N-(2-bromophenyl)-4-(2-chloro-4-fluorophenyl)-1,3-dimethyl-1H-pyrazol-5-amine], the “Test E rating (% disease control)” value (Septoria nodorum) was 0* %.
`Cc1nn(C)c(Nc2ccccc2Cl)c1-c1ccc(F)cc1Br` [Compound 8, 4-(2-bromo-4-fluorophenyl)-N-(2-chlorophenyl)-1,3-dimethyl-1H-pyrazol-5-amine] gave a pest or weed control at 200 ppm (Botrytis cinerea) of 100%, a pest or weed control at 200 ppm [1] of 99% and a pest or weed control at 200 ppm [2] of 100%. For the same compound, the pest or weed control at 200 ppm (Septoria tritici) was 100%.
Compound `Cc1nn(C)c(Nc2c(F)cccc2Cl)c1-c1ccc(F)cc1Br` [Compound 4, 4-(2-bromo-4-fluorophenyl)-N-(2-chloro-6-fluorophenyl)-1,3-dimethyl-1H-pyrazol-5-amine] has a pest or weed control at 200 ppm (Botrytis cinerea) of 100%, a pest or weed control at 200 ppm [1] of 100% and a pest or weed control at 200 ppm [2] of 100%. For the same compound, the distribution into fat [3] was “significantly diminished distribution into fat” and the pest or weed control at 200 ppm (Septoria tritici) was 100%.
With `Cc1nn(C)c(Nc2ccccc2Cl)c1-c1ccc(F)cc1Cl` [Compound 10, 4-(2-chloro-4-fluorophenyl)-N-(2-chlorophenyl)-1,3-dimethyl-1H-pyrazol-5-amine] the “Test E rating (% disease control)” value (Septoria nodorum) was 0* %.
